Like-named read-outs stand apart in the source and are kept apart here.
What was measured:
ROC1-CUL1 CTD [1] = biological target: T1, ROC1-CUL1 CTD (Homo sapiens (Human), UniProt Q13616); experiment: Ligand binding by MST
Procedure: (§1) E3 ligase complex (˜2 nmol) was labeled with fluorescent dye using Monolith NT Protein Labeling Kit Red-NHS (Nanotemper) in the presence of 20 mM MES pH 6.0 and 150 mM NaCl. Excess dye was removed using the included gravity flow column and eluted in storage buffer containing 20 mM Tris-HCl, pH 7.4, 150 mM NaCl, and 10% glycerol. The fluorescent E3 complex (˜0.01-0.06 μM) was mixed with increasing amount of compound in a buffer (20 μl) that contains phosphate-buffered saline, 0.1% TWEEN-20 and 2% prionex. Following incubation at room temperature for 30 min, the reaction mixture loaded into premium coated capillaries and analyzed in the Monolith NT.115 machine (Nanotemper). Thermophoresis was recorded for each sample and binding curve was generated and Kd was calculated using the included software. For reactions where significant ligand specific fluorescence quenching occurred (verified by manufacturer's SDS Denaturation-test protocol), the initial fluorescence quenching data was used directly to calculate the binding curve and Kd.

ROC1-CUL1 CTD [2] = biological target: T1, ROC1-CUL1 CTD; experiment: FRET K48 di-Ub synthesis assay; format: biochemical; conditions: for E3 inhibition: up to 80 μM
Procedure: The high throughput screen (“HTS”) employed the FRET K48 di-Ub assay as established previously (Wu et al., “Suramin Inhibits Cullin-RING E3 Ubiquitin Ligases,” PNAS 113(14):E2011-2018 (2016), which is hereby incorporated by reference in its entirety) and was carried out at Memorial Sloan Kettering Cancer Center Core Screening Facility. For HTS, the assay was formatted using three reagent addition steps. Library compounds, stored in 10 mM stock plates (DMSO), were transferred into assay plates and each well contains a single compound at 100 μM in 1 μl 10% DMSO. The complete complement of proteins/enzymes (6.5 μl), containing Ub E1 (14 nM), E2 Cdc34 (124 nM), E3 ROC1-CUL1 CTD (0.2 μM), Ub C31-I555 (donor, 0.93 μM), and Ub C64-I647 (receptor, 1.62 μM), in the presence of 33 mM Tris-HCl (pH 7.4), 1.7 mM MgCl2, 0.33 mM DTT, and BSA (0.07 mg/ml), was added to each plate. The concentrations of all five proteins have been determined based on Km measurement as described previously (Wu et al., “Suramin Inhibits Cullin-RING E3 Ubiquitin Ligases,” PNAS 113(14):E2011-2018 (2016), which is hereby incorporated by reference in its entirety). To initiate ubiquitination, ATP (2.5 μl in 2.64 mM) was added and its final concentration was 0.66 mM. The concentration of ATP was set high to minimize identification of nucleotide analogues because the priority of the HTS is to find small molecule modulators specific for E3 ROC1-CUL1 CTD. In this setting, the concentration of compound and DMSO in a given well were 10 μM and 1%, respectively. After incubation at room temperature for 45 min, EDTA (30 mM) was added to terminate the reaction. The reaction was quantified based on the ratio of acceptor:donor fluorescence (excitation 515 nm; donor emission 570 nm; acceptor emission 670 nm) using a Victor high-throughput plate reader (Perkin Elmer).
(§2) The reaction mixture (15 μl) was assembled onto a 384-well microtiter plate. […] ATP (0.66 mM) was then added to the mix followed by a brief centrifugation to settle down the mixture. The resulting plate was incubated at 30° C. in the Synergy-H1 reader and the fluorescence signal was monitored. Ubiquitination was quantified based on the ratio of acceptor:donor fluorescence (excitation 515 nm; donor emission 570 nm, acceptor emission 670 nm).

MV4-11 tumors = experiment: AML MV4-11 subcutaneous xenograft; conditions: G5, 3 mg/kg, QD, PO
ROC1-CUL4A (full length) = ROC1-CUL4A (full length) (Homo sapiens (Human), UniProt Q13619); experiment: Ligand binding by MST; conditions: read-out: E3 binding ROC1-CUL4A Kd
ROC1-CUL4A (full length), sequence (Q13619 39-759): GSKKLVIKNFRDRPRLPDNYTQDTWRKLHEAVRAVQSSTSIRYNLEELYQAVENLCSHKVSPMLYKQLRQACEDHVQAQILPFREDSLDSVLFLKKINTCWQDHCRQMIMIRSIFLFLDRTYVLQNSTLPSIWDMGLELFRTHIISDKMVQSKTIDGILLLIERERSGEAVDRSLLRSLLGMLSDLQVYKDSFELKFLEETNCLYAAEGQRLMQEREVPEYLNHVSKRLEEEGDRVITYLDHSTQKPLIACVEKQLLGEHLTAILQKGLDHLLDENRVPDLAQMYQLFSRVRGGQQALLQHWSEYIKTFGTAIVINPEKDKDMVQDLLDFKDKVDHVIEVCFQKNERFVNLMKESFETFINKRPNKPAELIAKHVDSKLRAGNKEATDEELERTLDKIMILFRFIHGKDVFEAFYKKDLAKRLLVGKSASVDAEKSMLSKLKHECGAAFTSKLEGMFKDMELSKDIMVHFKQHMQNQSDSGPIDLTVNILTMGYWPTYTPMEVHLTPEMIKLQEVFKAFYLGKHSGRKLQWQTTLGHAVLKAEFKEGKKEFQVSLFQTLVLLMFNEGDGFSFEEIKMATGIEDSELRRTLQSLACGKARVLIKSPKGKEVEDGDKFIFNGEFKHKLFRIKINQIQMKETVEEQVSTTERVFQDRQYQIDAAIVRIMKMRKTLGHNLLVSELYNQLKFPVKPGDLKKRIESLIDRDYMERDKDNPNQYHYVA
ROC1-CUL4A (full length), sequence (P62877 15-108 partner): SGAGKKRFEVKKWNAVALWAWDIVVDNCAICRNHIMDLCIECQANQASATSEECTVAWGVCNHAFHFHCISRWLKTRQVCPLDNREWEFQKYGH
Procedure: as §1

ROC1-CUL4A = ROC1-CUL4A (Homo sapiens (Human), UniProt Q13619); experiment: 32P-Ub chain elongation by ROC1-CUL4A; format: biochemical; set-up: concentration or dose not given beside the values; conditions: relative to KH-4-43
ROC1-CUL4A, sequence (Q13619 39-759): as the sequence (Q13619 39-759) above
ROC1-CUL4A, sequence (P62877 15-108 partner): as the sequence (P62877 15-108 partner) above
Procedure: (§3) The reaction was incubated for 5 min at 37° C. […] The reaction was incubated for 5 min at room temperature. In the second step (chase), the completed Cdc34b-Ub thiol ester reaction mixture was combined with one third of the completed mono-ubiquitination mixture. The final volume was adjusted to 10 μl with a mix that contained 50 mM Tris-HCl (pH 7.4), 0.5 mM DTT, 0.1 mg/ml of BSA, 5 mM MgCl2, and 2 mM ATP. Compounds were added where indicated. The chase reaction was incubated for 10 min at 37° C. The reaction products were separated by 4-20% SDS-polyacrylamide gel electrophoresis. The reaction scheme was identical to the one described above for FIGS. 12A-B. […] The reaction products, separated by SDS-PAGE, were visualized and analyzed by phospho-imaging using Typhoon 9500 scanner.

cancer cells = experiment: Apoptosis, Annexin V flow cytometry; format: cell-based
Procedure: Cells (5×10^4) were seeded 24 hours before compound treatment. Compound was added to the culture media and cells were cultured with the compound for 48 hours. The treated cells were then transferred into 5 ml flow cytometry tubes and the well was washed once with PBS to collect any remaining cells. The cells were then pelleted at 500×g for 5 min with a Beckman CS-6KR centrifuge at 4° C. After removal of supernatant, the cells pellet was washed with Annexin V binding buffer (10 mM Hepes-NaOH, pH 7.4, 150 mM NaCl, 5 mM KCl, 1 mM MgCl2, and 1.8 mM CaCl2). Cells were pelleted once again and incubated in the dark with Annexin V-FITC (2 μg/ml) in binding buffer for 5 min then analyzed using LSRFortessa flow cytometer (BD).

E3 (CUL4) = E3 (CUL4) (Homo sapiens (Human), UniProt Q13619); experiment: E3 (CUL4) inhibition (Table 1); format: biochemical
E3 (CUL4), sequence (Q13619 whole entry): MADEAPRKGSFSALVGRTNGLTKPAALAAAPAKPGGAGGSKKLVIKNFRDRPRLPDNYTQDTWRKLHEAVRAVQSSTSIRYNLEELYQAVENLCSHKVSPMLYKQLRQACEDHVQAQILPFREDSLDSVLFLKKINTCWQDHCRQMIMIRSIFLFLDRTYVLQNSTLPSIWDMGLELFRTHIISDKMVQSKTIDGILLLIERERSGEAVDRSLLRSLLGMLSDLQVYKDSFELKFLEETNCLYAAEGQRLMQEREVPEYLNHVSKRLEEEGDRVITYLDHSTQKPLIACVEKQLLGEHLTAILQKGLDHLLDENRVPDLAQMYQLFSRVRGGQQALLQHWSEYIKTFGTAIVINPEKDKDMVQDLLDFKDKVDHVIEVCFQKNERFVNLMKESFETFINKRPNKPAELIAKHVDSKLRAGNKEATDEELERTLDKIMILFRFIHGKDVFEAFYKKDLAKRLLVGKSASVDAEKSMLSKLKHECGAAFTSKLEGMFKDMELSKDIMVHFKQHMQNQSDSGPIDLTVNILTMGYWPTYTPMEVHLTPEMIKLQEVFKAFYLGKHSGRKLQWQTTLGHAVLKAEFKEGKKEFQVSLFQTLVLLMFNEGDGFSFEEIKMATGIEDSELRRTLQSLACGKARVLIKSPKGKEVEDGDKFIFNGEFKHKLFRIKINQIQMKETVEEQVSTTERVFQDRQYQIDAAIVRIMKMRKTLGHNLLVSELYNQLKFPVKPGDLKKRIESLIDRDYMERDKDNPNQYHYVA
E3 (CUL4), sequence (P62877 whole entry partner): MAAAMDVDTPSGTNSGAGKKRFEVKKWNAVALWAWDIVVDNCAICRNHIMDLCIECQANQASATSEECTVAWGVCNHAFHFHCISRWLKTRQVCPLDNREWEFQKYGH
Procedure: as §3

E3 (CUL1) = E3 (CUL1) (Homo sapiens (Human), UniProt Q13616); experiment: E3 (CUL1) inhibition (Table 1); format: biochemical
E3 (CUL1), sequence (Q13616 whole entry): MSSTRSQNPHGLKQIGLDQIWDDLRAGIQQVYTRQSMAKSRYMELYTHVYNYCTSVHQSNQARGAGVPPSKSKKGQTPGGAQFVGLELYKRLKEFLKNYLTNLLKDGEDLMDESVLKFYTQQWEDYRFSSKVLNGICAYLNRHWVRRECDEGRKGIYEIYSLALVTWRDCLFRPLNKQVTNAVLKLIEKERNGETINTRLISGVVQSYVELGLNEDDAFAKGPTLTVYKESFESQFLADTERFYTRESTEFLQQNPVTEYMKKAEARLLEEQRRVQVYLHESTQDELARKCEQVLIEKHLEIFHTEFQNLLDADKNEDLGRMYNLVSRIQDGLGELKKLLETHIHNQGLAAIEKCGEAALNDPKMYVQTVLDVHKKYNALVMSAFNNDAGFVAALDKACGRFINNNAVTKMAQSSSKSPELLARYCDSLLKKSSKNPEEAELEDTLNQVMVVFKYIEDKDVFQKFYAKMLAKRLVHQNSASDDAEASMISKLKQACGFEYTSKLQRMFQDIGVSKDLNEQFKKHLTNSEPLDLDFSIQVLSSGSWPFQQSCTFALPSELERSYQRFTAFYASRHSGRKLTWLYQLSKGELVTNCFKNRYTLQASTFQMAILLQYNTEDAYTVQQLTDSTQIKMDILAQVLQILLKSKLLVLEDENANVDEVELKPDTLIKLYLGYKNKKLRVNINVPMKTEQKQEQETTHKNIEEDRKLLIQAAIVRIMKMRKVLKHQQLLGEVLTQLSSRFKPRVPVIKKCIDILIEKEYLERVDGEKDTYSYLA
E3 (CUL1), sequence (P62877 whole entry partner): as the sequence (P62877 whole entry partner) above
Procedure: as §2

[3] = Table 9, read-out: E3 Binding Kd (MST with CUL1 CTD)
[4] = Table 9, read-out: IC50 (FRET CUL1 assay)
[5] = Table 5, MST, read-out: E3 binding Kd

T1 sequence (Q13616 411-776): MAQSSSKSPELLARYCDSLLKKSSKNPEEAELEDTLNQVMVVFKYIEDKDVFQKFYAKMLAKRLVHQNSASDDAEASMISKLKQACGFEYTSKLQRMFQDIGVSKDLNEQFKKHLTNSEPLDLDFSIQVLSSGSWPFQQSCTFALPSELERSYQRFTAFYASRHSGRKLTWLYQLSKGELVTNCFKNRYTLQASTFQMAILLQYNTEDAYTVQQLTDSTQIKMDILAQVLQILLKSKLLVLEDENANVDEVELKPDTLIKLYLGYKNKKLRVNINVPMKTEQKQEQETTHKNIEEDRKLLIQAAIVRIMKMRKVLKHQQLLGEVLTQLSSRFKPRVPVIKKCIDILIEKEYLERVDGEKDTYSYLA
T1 sequence (P62877 whole entry partner): as the sequence (P62877 whole entry partner) above

Compound: O=c1c(Oc2ccccc2Br)c(C(F)(F)F)oc2c(O)c(O)ccc12
- Kd (ROC1-CUL1 CTD [1]; [3]): 1.95 ± 0.44 µM
- IC50 (ROC1-CUL1 CTD [2]; [4]): 2.7 µM

Compound: CNC(=O)c1cc(Oc2ccc(NC(=O)Nc3ccc(Cl)c(C(F)(F)F)c3)cc2)ccn1 [Sorafenib, reference compound]
- tumor inhibition value (MV4-11 tumors): 46.02%

Compound: O=c1c(Oc2ccc(Br)cc2)c(C(F)(F)F)oc2c(O)c(O)ccc12
- Kd (ROC1-CUL1 CTD [1]; [3]): 1.42 ± 0.26 µM
- IC50 (ROC1-CUL1 CTD [2]; [4]): 3.5 µM

Compound: CCn1cc(-c2c(C(F)(F)F)oc3c(O)c(O)ccc3c2=O)cn1 [MM-009]
- Kd (ROC1-CUL4A (full length)): > 400 µM
- E3 CRL4 Relative Inhibition (ROC1-CUL4A): 0%
- EC50 (cancer cells; Table 6): 66 µM

Compound: O=c1c(Oc2ccccc2)c(C(F)(F)F)oc2c(O)c(O)c(Br)cc12 [drawing 256]
- Kd (ROC1-CUL1 CTD [1]; [3]): 1.89 ± 0.96 µM
- IC50 (ROC1-CUL1 CTD [2]; [4]): 3.1 µM

Compound: Cc1oc2c(O)c(O)ccc2c(=O)c1Oc1ccccc1 [#33-2, 7,8-dihydroxy-2-methyl-3-phenoxy-4H-chromen-4-one]
- reduction of binding Kd relative to #33 (ROC1-CUL1 CTD [1]): 8 fold
- Kd (ROC1-CUL1 CTD [1]; [5]): 15 µM
- drop in IC50 relative to #33 (ROC1-CUL1 CTD [2]): 7 fold
- IC50 (ROC1-CUL1 CTD [2]; Table 5, read-out: E3 inhibition IC50): 8.9 µM

Compound: CCCCn1cc(-c2c(C(F)(F)F)oc3c(O)c(O)ccc3c2=O)cn1 [MM-007]
- Kd (ROC1-CUL4A (full length)): 38 µM
- E3 CRL4 Relative Inhibition (ROC1-CUL4A): 2%
- EC50 (cancer cells; Table 6): 28 µM

Compound: CCCn1cc(-c2c(C(F)(F)F)oc3c(O)c(O)ccc3c2=O)cn1 [MM-008]
- Kd (ROC1-CUL4A (full length)): 26.4 µM
- E3 CRL4 Relative Inhibition (ROC1-CUL4A): 0%
- EC50 (cancer cells; Table 6): 38 µM

Compound: O=c1c(Oc2ccccc2)c(C(F)(F)F)oc2c(O)c(O)c(Br)cc12 [[drawing 256]]
- IC50 (ROC1-CUL1 CTD [2]; [4]): 3.3 µM

Compound: O=c1c(-c2cnn(Cc3ccccc3Cl)c2)c(C(F)(F)F)oc2c(O)c(O)ccc12 [MSSM-RJD-MM-015, 3-(1-(2-chlorobenzyl)-1H-pyrazol-4-yl)-7,8-dihydroxy-2-(trifluoromethyl)-4H-chromen-4-one]
- EC50 (E3 (CUL4)): > 10 µM
- EC50 (E3 (CUL1)): 8.2 µM
- EC50 (cancer cells; Table 1): > 20 µM

Compound: O=c1c(Oc2ccccc2)c(C(F)(F)F)oc2c3c(ccc12)OCCO3 [#33-5, 8-phenoxy-9-(trifluoromethyl)-2,3-dihydro-7H-[1,4]dioxino[2,3-h]chromen-7-one]
- Kd (ROC1-CUL1 CTD [1]; [5]): 48 µM
- E3 inhibition IC50 (ROC1-CUL1 CTD [2]; Table 5): No inhibition
- E3 inhibition (ROC1-CUL1 CTD [2]): No inhibition

Compound: O=c1c(Oc2ccccc2)c(C(F)(F)F)oc2cc(O)ccc12 [#33-7, 7-hydroxy-3-phenoxy-2-(trifluoromethyl)-4H-chromen-4-one]
- reduction of binding Kd relative to #33 (ROC1-CUL1 CTD [1]): > 30 fold
- Kd (ROC1-CUL1 CTD [1]; [5]): 57 µM
- E3 inhibition IC50 (ROC1-CUL1 CTD [2]; Table 5): No inhibition
- E3 inhibition (ROC1-CUL1 CTD [2]): No inhibition

Compound: O=c1c(-c2cnn(Cc3cc(F)ccc3C(F)(F)F)c2)c(C(F)(F)F)oc2c(O)c(O)ccc12 [MSSM-RJD-MM-028]
- EC50 (E3 (CUL4)): ~10 µM
- EC50 (E3 (CUL1)): 7.3 µM
- EC50 (cancer cells; Table 1): ~20 µM
